The values that follow come from US9204646B2, “Pyrazole tetrahydronaphthyl carboxamides” (BAYER CROPSCIENCE AG, priority 2012, dated 2015).

Structures are written as SMILES.

A short description of series [1]: Measurement of log P values by HPLC on reversed phase columns (EEC directive 79/831 Annex V.A8). The series is classed as physicochemical. The conditions noted are these: for logP: method [a]: LC-MS at pH 2.7, 0.1% formic acid in water / acetonitrile, linear gradient 10% to 95% acetonitrile, Table 1 active ingredients; for chromatographic logP: pH 2.7.
The test system of a further series is Pyrenophora teres. Briefly: In vivo preventive test on Pyrenophora teres (net blotch on barley). The conditions noted are these: dose of 500 ppm; preventive spray on barley plants; grading 14 days after contamination vs control plants. Here is the method: Barley plants (“Plaisant” variety), sown in starter cups on a 50/50 peat soil-pozzolana substrate and grown at 22° C., are treated at the 1-leaf stage (10 cm height) by spraying with the active ingredient prepared as described above. Plants, used as controls, are treated with the mixture of acetone/tween/DMSO/water not containing the active material. After 24 hours, the plants are contaminated by spraying the leaves with an aqueous suspension of Pyrenophora teres spores (12 000 spores per ml). The spores are collected from a 12-day-old culture. The contaminated barley plants are incubated for 48 hours at 20° C. and at 100% relative humidity, and then for 12 days at 20° C. at 70-80% relative humidity. Grading (% of efficacy) is carried out 14 days after the contamination, in comparison with the control plants.

For another series, the system named is Pyricularia oryzae. The series is classed as in vivo. The conditions noted are these: dose of 500 ppm; preventive spray on rice plants; grading 6 days after contamination vs control plants.
A further series deals with Puccinia recondita. Nature of the series: In vivo preventive test on Puccinia recondita (brown rust on wheat). The conditions noted are these: dose of 500 ppm; preventive spray on wheat plants; grading 12 days after contamination vs control plants. As to the method:
Wheat plants (“Scipion” variety), sown in starter cups on a 50/50 peat soil-pozzolana substrate and grown at 22° C., are treated at the 1-leaf stage (10 cm height) by spraying with the active ingredient prepared as described above. Plants, used as controls, are treated with the mixture of acetone/tween/DMSO/water not containing the active material. After 24 hours, the plants are contaminated by spraying the leaves with an aqueous suspension of Puccinia recondita spores (100 000 spores per ml). […] The contaminated wheat plants are incubated for 24 hours at 20° C. and at 100% relative humidity, and then for 10 days at 20° C. and at 70-80% relative humidity. Grading (% of efficacy) is carried out 12 days after the contamination, in comparison with the control plants.

The test system of a further series is Sphaerotheca fuliginea. Nature of the series: In vivo preventive test on Sphaerotheca fuliginea (powdery mildew on cucurbits). The conditions noted are these: dose of 500 ppm; preventive spray on gherkin plants; grading 12 days after contamination vs control plants. As to the method:
Gherkin plants (“Vert petit de Paris” variety), sown in starter cups on a 50/50 peat soil-pozzolana substrate and grown at 24° C., are treated at the Z11 cotyledon stage by spraying with the active ingredient prepared as described above. Plants, used as controls, are treated with the mixture of acetone/tween/DMSO/water not containing the active material. After 24 hours, the plants are contaminated by spraying the cotyledons with an aqueous suspension of Sphaerotheca fuliginea spores (100 000 spores per ml). The spores are collected from infected plants. The contaminated gherkin plants are incubated at about 20° C. and at 70-80% relative humidity. Grading (% of efficacy) is carried out 12 days after the contamination, in comparison with the control plants.

For the next series, the system named is Uromyces appendiculatus. Briefly: In vivo preventive test on Uromyces appendiculatus (bean rust). The conditions noted are these: dose of 500 ppm; preventive spray on bean plants; grading 11 days after contamination vs control plants. Here is the method:
Bean plants (“Saxa” variety), sown in starter cups on a 50/50 peat soil-pozzolana substrate and grown at 24° C., are treated at the 2-leaf stage (9 cm height) by spraying with the active ingredient prepared as described above. Plants, used as controls, are treated with the mixture of acetone/tween/DMSO/water not containing the active material. After 24 hours, the plants are contaminated by spraying the leaves with an aqueous suspension of Uromyces appendiculatus spores (150 000 spores per ml). […] The contaminated bean plants are incubated for 24 hours at 20° C. and at 100% relative humidity, and then for 10 days at 20° C. and at 70-80% relative humidity. Grading (% of efficacy) is carried out 11 days after the contamination, in comparison with the control plants.

For another series, the system named is Alternaria brassicae. Nature of the series: In vivo preventive test on Alternaria brassicae (leaf spot on radish). The conditions noted are these: dose of 500 ppm; preventive spray on radish plants; grading 6 days after contamination vs control plants. As to the method: Radish plants (“Pernod Clair” variety), sown in starter cups on a 50/50 peat soil-pozzolana substrate and grown at 17° C., are treated at the cotyledon stage by spraying with the active ingredient prepared as described above. Plants, used as controls, are treated with the mixture of acetone/tween/DMSO/water not containing the active material. After 24 hours, the plants are contaminated by spraying the cotyledons with an aqueous suspension of Alternaria brassicae spores (50 000 spores per ml). The spores are collected from a 15-day-old culture. The contaminated radish plants are incubated at 20° C. and at 100% relative humidity. Grading (% of efficacy) is carried out 6 days after the contamination, in comparison with the control plants.

The next series relates to Septoria tritici. Nature of the series: In vivo preventive test on Septoria tritici (leaf spot on wheat). The conditions noted are these: dose of 500 ppm; preventive spray on wheat plants; grading 24 days after contamination vs control plants. Here is the method:
Wheat plants (“Scipion” variety), sown in starter cups on a 50/50 peat soil-pozzolana substrate and grown at 22° C., are treated at the 1-leaf stage (10 cm height) by spraying with the active ingredient prepared as described above. Plants, used as controls, are treated with the mixture of acetone/tween/DMSO/water not containing the active material. After 24 hours, the plants are contaminated by spraying the leaves with an aqueous suspension of cryopreserved Septoria tritici spores (500 000 spores per ml). The contaminated wheat plants are incubated for 72 hours at 18° C. and at 100% relative humidity, and then for 21 days at 90% relative humidity. Grading (% of efficacy) is carried out 24 days after the contamination, in comparison with the control plants.

In series [2] the test system is Fusarium nivale (var. majus). Briefly: In vivo Fusarium nivale (var. majus)-test (wheat)/preventive. The conditions noted are these: concentration of 500 ppm of active ingredient; preventive spray on wheat plants; evaluated 5 days after inoculation; 0% = untreated control, 100% = no disease. As to the method:
• Solvent: 49 parts by weight of N,N-dimethylacetamide • Emulsifier: 1 part by weight of alkylaryl polyglycol ether To produce a suitable preparation of active compound, 1 part by weight of active compound or active compound combination is mixed with the stated amounts of solvent and emulsifier, and the concentrate is diluted with water to the desired concentration. To test for preventive activity, young plants are sprayed with the preparation of active compound or active compound combination at the stated rate of application. After the spray coating has been dried, the plants are slightly injured by using a sandblast and afterwards they are sprayed with a conidia suspension of Fusarium nivale (var. majus). The plants are placed in the greenhouse under a translucent incubation cabinet at a temperature of approximately 10° C. and a relative atmospheric humidity of approximately 100%.

The next series concerns Phakopsora pachyrhizi. Nature of the series: In vivo Phakopsora test (soybeans)/preventive. The conditions noted are these: concentration of 10 ppm of active ingredient; preventive spray on soybean plants; evaluated 7 days after inoculation; 0% = untreated control, 100% = no disease. Here is the method:
To produce a suitable preparation of active compound, 1 part by weight of active compound is mixed with the stated amounts of solvent and emulsifier, and the concentrate is diluted with water to the desired concentration. To test for preventive activity, young plants are sprayed with the preparation of active compound at the stated rate of application. After the spray coating has dried on, the plants are inoculated with an aqueous spore suspension of the causal agent of soybean rust (Phakopsora pachyrhizi) and stay for 24 h without light in an incubation cabinet at approximately 24° C. and a relative atmospheric humidity of 95%. The plants remain in the incubation cabinet at approximately 24° C. and a relative atmospheric humidity of approximately 80% and a day/night interval of 12 h.

A further series deals with Botrytis cinerea. Nature of the series: In vivo preventive test on Botrytis cinerea (grey mould). The conditions noted are these: dose of 500 ppm; preventive spray on gherkin plants; grading 4 to 5 days after contamination vs control plants. As to the method: Gherkin plants (“Vert petit de Paris” variety), sown in starter cups on a 50/50 peat soil-pozzolana substrate and grown at 24° C., are treated at the Z11 cotyledon stage by spraying with the active ingredient prepared as described above. Plants, used as controls, are treated with the mixture of acetone/tween/DMSO/water not containing the active material. After 24 hours, the plants are contaminated by spraying the cotyledons with an aqueous suspension of cryopreserved Botrytis cinerea spores (50 000 spores per ml). The spores are suspended in a nutrient solution composed of 10 g/L of PDB, 50 g/L of D-Fructose, 2 g/L of NH4NO3 and 1 g/L of KH2PO4. The contaminated gherkin plants are incubated at 17° C. and at 90% relative humidity. Grading (% of efficacy) is carried out 4 to 5 days after the contamination, in comparison with the control plants.

`CC1c2cccc(NC(=O)c3c(C(F)F)nn(C)c3F)c2CCC1(C)C` (racemic) [Example 12]: in [1], the logP is 4.11[a]. For the same compound, the Eff. % worked out at 81% with Pyrenophora teres; 71% in the series on Pyricularia oryzae; 100% in the series on Puccinia recondita; 100% with Sphaerotheca fuliginea; 100% in the series on Uromyces appendiculatus.

In turn, `Cn1nc(C(F)F)c(C(=O)Nc2cccc3c2CCCC3(C)C)c1F` [Example 1, 5-fluoro-3-(difluoromethyl)-N-(5,5-dimethyl-5,6,7,8-tetrahydronaphthalen-1-yl)-1-methyl-1H-pyrazole-4-carboxamide] returned a chromatographic logP in [1] of 3.67. Also, the Eff. % in the series on Alternaria brassicae was 93%; with Puccinia recondita, 100%; in the series on Septoria tritici, 88%; in the series with Uromyces appendiculatus, 100%; in [2], 92%.

With `Cn1nc(C(F)F)c(C(=O)Nc2cccc3c2CCCC3(C)C)c1Cl` [Example 2], the logP in series [1] was 3.89[a]. The Eff. % is 98% with Puccinia recondita, 100% in the series on Uromyces appendiculatus, 96% in the series on Phakopsora pachyrhizi and 86% in series [2].

On to `C=C1c2cccc(NC(=O)c3c(C(F)F)nn(C)c3F)c2CCC1(C)C` [Example 6], for which the logP in series [1] was 3.87[a]. Besides, the Eff. % was 97% in the series with Alternaria brassicae; 97% in the series on Botrytis cinerea; 80% in the series on Pyrenophora teres; 89% in the series with Puccinia recondita; 75% in the series with Septoria tritici; 70% in the series on Sphaerotheca fuliginea. The Eff. % in the series with Uromyces appendiculatus came out at 97%.

As for `Cn1nc(C(F)F)c(C(=O)Nc2cccc3c2CC(C)(C)CC3)c1F` [Example 13], the logP in series [1] is 3.72[a]. Besides, the Eff. % in the series on Pyrenophora teres came to 75%; in the series on Puccinia recondita, 97%; in the series with Septoria tritici, 95%; in the series on Sphaerotheca fuliginea, 98%; in the series with Uromyces appendiculatus it was 100%.

Regarding `Cn1nc(C(F)F)c(C(=O)Nc2cccc3c2CC(C)(C)CC3)c1Cl` [Example 14], the logP in series [1] was 3.9[a]. For the same compound, the Eff. % in the series with Alternaria brassicae amounted to 71%; with Pyrenophora teres it was 97%; with Puccinia recondita it was 100%; in the series with Septoria tritici, 90%; in the series on Sphaerotheca fuliginea it was 98%; with Uromyces appendiculatus, 99%.

As to `Cn1nc(C(F)F)c(C(=O)Nc2cccc3c2CCC(C)(C)C3)c1F` [Example 22], the logP in series [1] was 3.79[a]. For the same compound, the Eff. % in the series on Alternaria brassicae was 80%; in the series on Botrytis cinerea, 99%; with Pyrenophora teres, 70%; in the series with Puccinia recondita, 94%; in the series with Septoria tritici, 83%; in the series with Sphaerotheca fuliginea, 100%. This compound returned an Eff. % in the series on Uromyces appendiculatus of 100%.

Take `Cn1nc(C(F)F)c(C(=O)Nc2cccc3c2CCC(C)(C)C3)c1Cl` [Example 25, 5-chloro-3-(difluoromethyl)-N-(6,6-dimethyl-5,6,7,8-tetrahydronaphthalen-1-yl)-1-methyl-1H-pyrazole-4-carboxamide]: the chromatographic logP in series [1] amounted to 4.04. Further, the Eff. % worked out at 70% with Alternaria brassicae; 97% in the series on Botrytis cinerea; 98% in the series with Puccinia recondita; 100% in the series with Septoria tritici; 100% in the series with Uromyces appendiculatus.
